US20250085273A1, “NOVEL RAPID DRUG DISCOVERY FOR SEPSIS AND AGENTS FOR USE AS SEPSIS THERAPY” (priority 2023, published 2025)
Where a name gives a salt, the structure may show the parent alone. Read-outs that look alike come from different tables or passages of the source.

Columns and labels:
Type in all cases: in vivo, Danio rerio
[1] = tested on: 3-dpf Zebrafish Embryos Challenged with LPS (P. aeruginosa 60 μg/mL); conditions: for Percent Rescue (Mort + Tail Edema): 3-dpf embryos, n=16; for Percent Rescue (Mort + Tail Edema) / rescue of tail edema and mortality (sepsis rescue rate) at 3-dpf / 3 dpf Embryos Percent Rescue (Mort + Tail Edema): compound 10 μM; for 3 dpf Embryos Percent Rescue (Mort + Tail Edema): initial 3-dpf screen shown for reference
Experimental: Healthy, normally developing embryos collected from the adult AB zebrafish spawning events were treated with 75 μM of 1-phenyl 2-thiourea (PTU) in EM prior to 24 hours post fertilization (hpf) to block pigmentation formation (Karlsson et al, 2001). These embryos were then placed into an incubator at 28.5° C. until they reached 3-dpf. Embryos were then removed from the incubator and plated individually into the wells of 96 well plates containing 50 μL of EM.
A super stock of 120 μg/mL of P. aeruginosa LPS was made up in EM in a glass container. This stock was then used to make sub stocks of 120 μg/mL P. aeruginosa LPS (positive control) and 120 μg/mL P. aeruginosa LPS containing 20 μM of test drug in glass scintillation vials. Immediately after the sub stocks were made, the wells were dosed with either 50 μL of 120 μg/mL of P. aeruginosa, 120 μg/mL of P. aeruginosa with 20 μM of test drug, or EM (1:1 Dilution). Each 96 well plate had one LPS positive control (n=16), 4 different test drugs with P. aeruginosa LPS (n=16 per drug), and one negative control (n=16). Once the plates were dosed, they were covered with parafilm and placed into an incubator at 28.5° C. The plates were removed at 6- and 24-hours post exposure to be scored for tail edema and mortality. All 644 drugs evaluated for rescue from mortality and tail edema induced by P. aeruginosa LPS exposure as compared to LPS-treated controls after 24 hours of exposure.
3-dpf embryos were challenged with 60 μg/mL P. aeruginosa LPS in combination with single 10 μM concentration of each compound for 24 hours (n=16 fish per compound). […] Other 29 compounds exceeded 60% rescue of tail edema and mortality at 24 hours post exposure.

[2] = tested on: 5-dpf zebrafish larvae challenged with P. aeruginosa LPS 60 μg/mL; conditions: compound 10 μM; for 5 dpf Embryos Percent Rescue (Mort + Tail Edema): 5-dpf larvae
Source text: Confirmatory testing followed the same methods as the initial testing but used 5-dpf larvae instead of the 3-dpf larvae that were used for the initial screening because they were easier to handle and replicated the methods of Philip et al. (2017).
Next, follow-on 5-dpf screening was implemented to confirm initial screening with more larvae. Zebrafish swim faster at 5-dpf (requiring more time to load 96 plates), and all major organ systems are functioning at 5-dpf and thus determined as advantageous for follow-on confirmation.

[3] = tested on: zebrafish (4 dpf pre-treated, LPS exposure at 5-dpf) challenged with P. aeruginosa LPS 60 μg/mL; conditions: number of n = 16 fish
Experimental: Drugs identified with >80% rescue were subjected to additional testing. Drug pretreatment for 24 hours prior to LPS challenge was evaluated to determine if any prophylactic benefit could be realized with any of the top rescue drugs. The intent was to determine if drug pre-treatment might be used at the point of injury as a preventative therapeutic before the onset of infection and development of sepsis. Parallel groups of fish received a 24-hour drug pre-treatment or no drug pre-treatment prior to LPS challenge. For this test, 4 dpf PTU-treated zebrafish embryos were placed into 96 well plates containing 100 μL of EM. […] All plates were covered with parafilm and placed into an incubator at 28.5° C. for 24 hours. […] Once the plates were dosed, they were covered with parafilm and placed into an incubator at 28.5° C. The plates were removed at 6- and 24-hours post exposure and scored for tail edema and mortality. Once the 24-hour tail edema and mortality endpoints were collected, a neurobehavioral test was conducted as described in section 2.8.

[4] = P. aeruginosa LPS 60 μg/mL, 24 hours, hydrochloride
[5] = 3-dpf, P. aeruginosa LPS 60 μg/mL, 24 hours
[6] = P. aeruginosa LPS 60 μg/mL, 24 hours
[7] = 3-dpf, P. aeruginosa LPS 60 μg/mL, 24 hours, hydrochloride
[8] = 24-hour 10 μM drug pre-treatment

Compound | Percent Rescue (Mort + Tail Edema) [1, 6] [%] | 3 dpf Embryos Percent Rescue (Mort + Tail Edema) ([1]; P. aeruginosa LPS 60 μg/mL) [%] | 5 dpf Embryos Percent Rescue (Mort + Tail Edema) [2] [%] | further results
O=C(Nc1nc(-c2cc(Cl)cs2)c(N2CCN(C3CCCCC3)CC2)s1)c1cnc(N2CCC(C(=O)O)CC2)c(Cl)c1 [Compound 3, Avatrombopag (hydrochloride)] |  |  |  | Percent Rescue (Mort + Tail Edema) [1, 4]: 56%
Cc1nc2n(c(=O)c1CCN1CCC(c3noc4cc(F)ccc34)CC1)CCCC2 [Compound 4, Risperidone] |  |  |  | rescue of tail edema and mortality (sepsis rescue rate) at 3-dpf [1, 5]: 6%
N[C@@H]1C[C@H]1c1ccccc1.N[C@@H]1C[C@H]1c1ccccc1.O=S(=O)(O)O [Compound 7, Tranylcypromine (hemisulfate)] | 88 | 88 | 56 | 
C[C@H](N)[C@H](O)c1ccc(O)c(O)c1 [Compound 10, Levonordefrin] | 63 | 63 | 75 | 
CC(C)NCC(O)COc1cccc2[nH]ccc12 (stereo not drawn) [Compound 12, Pindolol] | 56 |  |  | 
O=C(Nc1nc(-c2cc(Cl)cs2)c(N2CCN(C3CCCCC3)CC2)s1)c1cnc(N2CCC(C(=O)O)CC2)c(Cl)c1 [Compound 31, Avatrombopag] | 75 | 75 | 31 | 
CN[C@H]1CC[C@@H](c2ccc(Cl)c(Cl)c2)c2ccccc21 [Compound 37, Sertraline (hydrochloride)] | 88 | 88 | 31 | 
CC(C)(C)c1ccc(C(O)CCCN2CCC(C(O)(c3ccccc3)c3ccccc3)CC2)cc1 (stereo not drawn) [Compound 44, Terfenadine] | 75 | 75 | 0 | pericardial edema observation ([1]; 3-dpf, 24 hours): had pericardial edemas; mortality (survival) in 3-dpf initial screen [1, 5]: alive at 24 hours
Cc1nc2n(c(=O)c1CCN1CCC(c3noc4cc(F)ccc34)CC1)CCCC2O (stereo not drawn) [Compound 61, Paliperidone] |  |  |  | rescue of tail edema and mortality (sepsis rescue rate) at 3-dpf [1, 5]: 6%
Clc1ccc(CCCOCCCN2CCCCC2)cc1 [Compound 126, Pitolisant hydrochloride] |  |  |  | rescue of tail edema and mortality (sepsis rescue rate) at 3-dpf [1, 7]: 38%
CC(C)(C(=O)O)c1ccc(C(O)CCCN2CCC(C(O)(c3ccccc3)c3ccccc3)CC2)cc1 (stereo not drawn) [Compound 137, Fexofenadine] |  |  |  | rescue of tail edema in 3-dpf initial screen ([1]; 3-dpf, P. aeruginosa LPS 60 μg/mL): did not rescue tail edema; mortality (survival) in 3-dpf initial screen [1, 5]: did rescue mortality
Nc1ccc(S(=O)(=O)c2ccc(N)cc2)cc1 [Compound 155, Dapsone] | 69 | 69 | 25 | 
CN(C)[C@@H](CCOc1cccc2ccccc12)c1ccccc1 [Compound 156, Dapoxetine (hydrochloride)] | 100 | 100 | 38 | rescue of tail edema and mortality (sepsis rescue rate) at 3-dpf [1, 5]: 100%; rescue of tail edema and mortality (sepsis rescue rate) at 5-dpf [2]: 38%
CN(C)CCOC(C)(c1ccccc1)c1ccc(Cl)cc1 (stereo not drawn) [Compound 157, Chlorphenoxamine] | 50 |  |  | 
O=C(O)c1cc2ccccc2c(Cc2c(O)c(C(=O)O)cc3ccccc23)c1O.OCCOCCN1CCN(C(c2ccccc2)c2ccc(Cl)cc2)CC1 [Compound 207, Hydroxyzine (pamoate)] | 50 |  |  | 
CNCCc1ccccn1 [Compound 310, Betahistine] | 56 |  |  | 
C[C@H]1N=C(N(C)C)N=C(N)N1 [Compound 317, Imeglimin (hydrochloride)] | 50 |  |  | 

Compound | Percent Rescue (Mort + Tail Edema) [1, 6] [%] | 3 dpf Embryos Percent Rescue (Mort + Tail Edema) ([1]; P. aeruginosa LPS 60 μg/mL) [%] | 5 dpf Embryos Percent Rescue (Mort + Tail Edema) [2] [%] | further results
CN1CCc2c(c3ccccc3n2Cc2ccccc2)C1 [Compound 318, Mebhydrolin] | 56 |  |  | 
CCN(CC)CCNC(=O)c1c(C)[nH]c(/C=C2\C(=O)Nc3ccc(F)cc32)c1C [Compound 354, Sunitinib (Malate)] | 88 | 88 | 100 | rescue of tail edema and mortality (sepsis rescue rate) at 3-dpf [1, 5]: 88%; rescue of tail edema and mortality (sepsis rescue rate) at 5-dpf [2]: 100%
Cc1cc(Nc2ncc(Cl)c(Nc3ccccc3S(=O)(=O)C(C)C)n2)c(OC(C)C)cc1C1CCNCC1 [Compound 378, Ceritinib dihydrochloride] | 75 | 75 | 38 | 
CNCC[C@H](Oc1cccc2ccccc12)c1cccs1 [Compound 386, Duloxetine (hydrochloride)] | 50 |  |  | 
CNS(=O)(=O)CCc1ccc2[nH]cc(C3CCN(C)CC3)c2c1 [Compound 438, Naratriptan (hydrochloride)] | 50 |  |  | 
COc1cc2ncnc(Nc3ccc(F)c(Cl)c3)c2cc1OCCCN1CCOCC1 [Compound 516, Gefitinib (ZD1839)] | 50 |  |  | 
CCN(CC)CC(=O)Nc1c(C)cccc1C [Compound 549, Lidocaine hydrochloride] | 56 |  |  | 
Clc1ccc(CCCOCCCN2CCCCC2)cc1 [Compound 589, Pitolisant hydrochloride] |  |  |  | Percent Rescue (Mort + Tail Edema) [1, 4]: 56%; rescue of tail edema and mortality (sepsis rescue rate) at 3-dpf [1, 7]: 56%
CC(C)(C)c1cc(NC(=O)Nc2ccc(-c3cn4c(n3)sc3cc(OCCN5CCOCC5)ccc34)cc2)no1 [Compound 598, Quizartinib (AC220)] | 56 |  |  | 
CCN(CC)CCNC(=O)c1c(C)[nH]c(/C=C2\C(=O)Nc3ccc(F)cc32)c1C [Compound 621, Sunitinib Malate] | 94 | 94 | 100 | rescue of tail edema and mortality (sepsis rescue rate) at 3-dpf [1, 5]: 88%; rescue of tail edema and mortality (sepsis rescue rate) at 5-dpf [2]: 100%
CCN(CC)CCNC(=O)c1c(C)[nH]c(/C=C2\C(=O)Nc3ccc(F)cc32)c1C.O=C(O)C[C@H](O)C(=O)O [Sunitnib (malate)] |  |  |  | 24 hour Tail Edema, No-Drug Pretreatment ([3]; 10 μM drug with LPS 60 μg/mL, no 24-hour pre-treatment): 4 fish; 24 Hour Mortality and Tail Edema, Drug Pretreatment [3, 8]: 2 fish; 24 Hour Mortality, Drug Pretreatment [3, 8]: 1 fish; 24 hour Tail Edema, Drug Pretreatment ([3]; 24-hour 10 μM drug pre-treatment before LPS 60 μg/mL): 1 fish; 24 Hour Mortality and Tail Edema, No-Drug Pretreatment ([3]; no 24-hour pre-treatment): 5 fish; 24 Hour Mortality, No Drug Pretreatment ([3]; no 24-hour pre-treatment): 1 fish
Almotriptan (malate) [Compound 6] | 63 | 63 | 63 | 
Alverine (citrate) [Compound 138] | 69 | 69 | 38 | 
Bedaquiline fumarate [Compound 474] | 94 | 94 | 0 | 
Gabexate (mesylate) [Compound 8] | 88 | 88 | 31 | 
Lumateperone (tosylate) [Compound 30] | 75 | 75 | 19 | 
